Entries after “also recorded” stand apart in the source; their conditions may differ.

The test system of one experiment is mast cells (RBL-2H3). Type of experiment: cell-based.
Experiment [1] relates to lung epithelial cells (A-549). Type of experiment: cell-based, human.
Experiment [2] is described as follows: Liposome fusion assay (Rhodamine B R18 dequenching). An excerpt: Liposomes are picked-up by cells by endocytosis and form an endosome. Within a few minutes the pH in the endosome drops to 5 and degradation begins. In order to accelerate the fusion of the liposome with the endosome membrane and release its DNA content into the cytoplasm, fusogenic peptides (Plank et al., 1994, Puyal et al., 1994), triggered by the low pH, are integrated into the liposomes membrane (0.1-2%). The most suitable fusogenic peptide and its concentration in the liposome are selected, using in-vitro fluorescence method (Hoekstra et al., 1984) at different pH levels.
Rhodamine B (R18) quenching curve: Rhodamine is characterized by self-quenching, which increases linearly with increasing concentration of R18. […] A total fusion of the two types of liposomes would result in a reduction of R18 concentration or quenching by ˜50%. Since liposomes also tend to fuse with their own type, this high level of fusion can never be achieved.
Liposomes containing 8 Mol % of R18 are mixed with liposomes conjugated to the fusion peptide at pH 7.4 and the fluorescence is measured using […] at λ=550 nm and emission at λ=580 nm. The pH is adjusted to 5.0 by adding few drops of 1N HCl and the change in fluorescence is measured. The total fluorescence is then determined by treating the mixture with Triton X-100. […]

For “SEQ ID NO: 1: targeting peptide whose sequence derives from endothelin-1, for lung mast cells and lung epithelial cells (CHLDIIW)”, the “binding / targeting to mast cells” value in the experiment with mast cells (RBL-2H3) is “efficient targeting peptide; also recorded: high affinity”. Moreover, the “binding / targeting to lung epithelial cells” value in experiment [1] is reported as “efficient targeting peptide; also recorded: high affinity”.

Turning to “SEQ ID NO: 2: fusogenic peptide derived from the amphiphatic, pH-dependent peptide of influenza virus hemagglutinin (CGYWGDIMGEWGDEIFGEIAGFLG)”, in experiment [2], the “activity as a fusogen” value is “highly active”.

These data come from patent publication US7741431B2, “Liposomes containing novel targeting and/or fusogenic peptides, preparations containing them and therapeutic use thereof” (The United States of America as represented by the …, priority 2005, dated 2010).
